{"source": "ChEMBL document CHEMBL1743201", "about": "“Casarett and Doull's Toxicology The Basic Science of Poisons, 7th edition” (2008)", "format_in_all_cases": "ADME", "key": {"[1]": {"molecular_target": "T1, Nuclear receptor subfamily 1 group I member 3 (Mus musculus, UniProt O35627)", "T1 sequence (O35627 whole entry)": "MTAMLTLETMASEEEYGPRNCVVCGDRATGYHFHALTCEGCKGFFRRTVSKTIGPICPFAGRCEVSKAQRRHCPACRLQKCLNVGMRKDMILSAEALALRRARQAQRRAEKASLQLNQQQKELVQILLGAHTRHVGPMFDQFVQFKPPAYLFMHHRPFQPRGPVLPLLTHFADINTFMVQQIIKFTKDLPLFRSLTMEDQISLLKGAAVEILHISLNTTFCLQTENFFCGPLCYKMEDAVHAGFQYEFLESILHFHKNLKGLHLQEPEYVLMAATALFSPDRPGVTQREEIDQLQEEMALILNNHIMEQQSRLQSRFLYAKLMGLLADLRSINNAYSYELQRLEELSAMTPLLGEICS", "experiment": "(§1) Constitutive androstane receptor indirect activator"}, "[2]": {"molecular_target": "T2, Nuclear receptor subfamily 1 group I member 3 (Homo sapiens, UniProt Q14994)", "T2 sequence (Q14994 whole entry)": "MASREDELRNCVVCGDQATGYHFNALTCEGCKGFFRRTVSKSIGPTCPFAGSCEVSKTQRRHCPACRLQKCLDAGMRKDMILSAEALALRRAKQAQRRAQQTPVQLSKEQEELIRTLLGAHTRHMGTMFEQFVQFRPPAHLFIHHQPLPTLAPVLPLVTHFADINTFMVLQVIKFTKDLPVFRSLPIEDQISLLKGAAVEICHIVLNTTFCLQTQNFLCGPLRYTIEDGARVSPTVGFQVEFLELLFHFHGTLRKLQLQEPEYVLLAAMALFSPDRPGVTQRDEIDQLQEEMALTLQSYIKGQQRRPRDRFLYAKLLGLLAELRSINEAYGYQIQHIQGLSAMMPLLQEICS", "experiment": "as §1"}, "Cytochrome P450 2C8": {"molecular_target": "T3, Cytochrome P450 2C8 (Homo sapiens, UniProt P10632)", "T3 sequence (P10632 whole entry)": "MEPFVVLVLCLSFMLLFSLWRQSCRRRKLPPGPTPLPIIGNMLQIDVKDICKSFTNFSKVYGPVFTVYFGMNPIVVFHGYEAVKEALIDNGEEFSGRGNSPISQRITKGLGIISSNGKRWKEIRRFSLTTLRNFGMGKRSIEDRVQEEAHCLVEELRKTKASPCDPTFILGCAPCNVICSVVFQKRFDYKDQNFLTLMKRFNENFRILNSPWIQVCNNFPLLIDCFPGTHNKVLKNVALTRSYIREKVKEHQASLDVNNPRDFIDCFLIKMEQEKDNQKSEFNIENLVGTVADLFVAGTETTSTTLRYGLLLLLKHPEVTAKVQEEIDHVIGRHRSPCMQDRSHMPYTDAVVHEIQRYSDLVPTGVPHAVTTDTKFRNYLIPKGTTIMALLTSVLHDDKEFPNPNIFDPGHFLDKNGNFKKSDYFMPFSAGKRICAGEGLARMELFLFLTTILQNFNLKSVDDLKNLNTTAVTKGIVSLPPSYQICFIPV", "experiment": "Clinically relevant inducers of human liver microsomal P450 enzymes, isoform CYP2C8", "conditions": "microsomes"}, "Cytochrome P450 2B6": {"molecular_target": "T4, Cytochrome P450 2B6 (Homo sapiens, UniProt P20813)", "T4 sequence (P20813 whole entry)": "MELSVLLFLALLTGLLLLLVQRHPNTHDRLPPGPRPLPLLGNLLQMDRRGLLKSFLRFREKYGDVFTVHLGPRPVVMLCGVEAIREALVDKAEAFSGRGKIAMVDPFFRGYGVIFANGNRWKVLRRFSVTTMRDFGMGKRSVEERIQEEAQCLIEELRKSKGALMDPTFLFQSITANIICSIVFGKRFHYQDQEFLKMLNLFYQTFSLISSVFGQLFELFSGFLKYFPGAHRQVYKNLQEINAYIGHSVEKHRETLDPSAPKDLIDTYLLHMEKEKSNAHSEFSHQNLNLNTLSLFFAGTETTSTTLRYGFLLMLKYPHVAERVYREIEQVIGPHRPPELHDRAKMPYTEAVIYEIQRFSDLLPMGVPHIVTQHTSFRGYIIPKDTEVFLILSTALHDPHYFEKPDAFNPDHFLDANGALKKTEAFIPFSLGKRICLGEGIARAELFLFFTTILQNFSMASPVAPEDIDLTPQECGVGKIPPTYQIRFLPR", "experiment": "Clinically relevant inducers of human liver microsomal P450 enzymes, isoform CYP2B6", "conditions": "microsomes"}, "Cytochrome P450 2C19": {"molecular_target": "Cytochrome P450 2C19 (Homo sapiens, UniProt P33261)", "sequence (P33261 whole entry, canonical isoform)": "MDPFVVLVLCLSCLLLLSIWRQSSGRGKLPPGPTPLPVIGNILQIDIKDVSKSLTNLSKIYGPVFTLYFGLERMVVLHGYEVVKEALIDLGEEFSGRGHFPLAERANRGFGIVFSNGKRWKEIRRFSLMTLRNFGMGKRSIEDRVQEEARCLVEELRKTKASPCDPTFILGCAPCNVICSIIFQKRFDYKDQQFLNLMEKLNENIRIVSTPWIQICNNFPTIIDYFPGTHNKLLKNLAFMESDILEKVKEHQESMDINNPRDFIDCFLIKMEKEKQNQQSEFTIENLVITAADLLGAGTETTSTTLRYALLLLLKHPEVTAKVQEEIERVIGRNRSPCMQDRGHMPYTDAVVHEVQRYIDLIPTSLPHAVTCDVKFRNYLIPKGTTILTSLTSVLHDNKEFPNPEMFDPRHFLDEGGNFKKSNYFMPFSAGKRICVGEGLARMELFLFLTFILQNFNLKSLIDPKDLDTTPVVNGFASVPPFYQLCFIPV", "experiment": "Clinically relevant inducers of human liver microsomal P450 enzymes, isoform CYP2C19", "conditions": "microsomes"}, "Cytochrome P450 2C9": {"molecular_target": "Cytochrome P450 2C9 (Homo sapiens, UniProt P11712)", "sequence (P11712 whole entry, canonical isoform)": "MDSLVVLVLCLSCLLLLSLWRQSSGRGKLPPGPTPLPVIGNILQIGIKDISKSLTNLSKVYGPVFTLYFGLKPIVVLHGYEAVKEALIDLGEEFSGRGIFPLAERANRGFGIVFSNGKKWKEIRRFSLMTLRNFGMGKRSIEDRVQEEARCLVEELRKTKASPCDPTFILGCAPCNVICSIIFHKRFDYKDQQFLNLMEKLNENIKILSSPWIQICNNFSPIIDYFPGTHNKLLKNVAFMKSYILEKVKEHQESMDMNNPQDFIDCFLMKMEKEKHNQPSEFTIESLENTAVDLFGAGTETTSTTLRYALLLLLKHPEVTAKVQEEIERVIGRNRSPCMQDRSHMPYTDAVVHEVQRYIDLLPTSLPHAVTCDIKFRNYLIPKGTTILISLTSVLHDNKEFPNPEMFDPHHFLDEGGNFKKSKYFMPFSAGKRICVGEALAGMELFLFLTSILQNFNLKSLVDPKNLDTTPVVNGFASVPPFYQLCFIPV", "experiment": "Clinically relevant inducers of human liver microsomal P450 enzymes, isoform CYP2C9", "conditions": "microsomes"}, "Prostaglandin E synthase": {"molecular_target": "Prostaglandin E synthase (Homo sapiens, UniProt O14684)", "sequence (O14684 whole entry)": "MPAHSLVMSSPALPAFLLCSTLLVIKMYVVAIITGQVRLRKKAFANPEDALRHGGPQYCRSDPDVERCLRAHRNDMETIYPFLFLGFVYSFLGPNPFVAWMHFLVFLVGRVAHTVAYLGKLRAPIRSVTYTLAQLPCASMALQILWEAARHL", "experiment": "Substrates for human microsomal glutathione transferase PTGEs"}, "[3]": {"molecular_target": "T5, Glutathione S-transferase Mu 2 (Homo sapiens, UniProt P28161)", "T5 sequence (P28161 whole entry)": "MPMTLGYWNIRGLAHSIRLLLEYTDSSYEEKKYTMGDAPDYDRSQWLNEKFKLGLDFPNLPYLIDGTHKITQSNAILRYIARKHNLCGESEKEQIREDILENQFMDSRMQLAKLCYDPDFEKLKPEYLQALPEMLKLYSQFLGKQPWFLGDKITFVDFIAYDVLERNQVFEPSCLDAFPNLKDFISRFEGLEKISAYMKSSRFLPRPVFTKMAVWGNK", "experiment": "Substrates for human cytosolic glutathione transferase GSTM2"}, "[4]": {"molecular_target": "Hematopoietic prostaglandin D synthase (Homo sapiens, UniProt O60760)", "sequence (O60760 whole entry)": "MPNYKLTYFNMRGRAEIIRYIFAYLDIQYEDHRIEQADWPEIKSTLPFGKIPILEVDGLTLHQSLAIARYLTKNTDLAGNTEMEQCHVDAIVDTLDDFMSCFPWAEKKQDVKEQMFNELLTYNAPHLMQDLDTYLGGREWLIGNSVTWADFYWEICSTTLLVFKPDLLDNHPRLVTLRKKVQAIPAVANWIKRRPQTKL", "experiment": "Substrates for human cytosolic glutathione transferase PGDS"}, "[5]": {"molecular_target": "Glutathione S-transferase Mu 3 (Homo sapiens, UniProt P21266)", "sequence (P21266 whole entry)": "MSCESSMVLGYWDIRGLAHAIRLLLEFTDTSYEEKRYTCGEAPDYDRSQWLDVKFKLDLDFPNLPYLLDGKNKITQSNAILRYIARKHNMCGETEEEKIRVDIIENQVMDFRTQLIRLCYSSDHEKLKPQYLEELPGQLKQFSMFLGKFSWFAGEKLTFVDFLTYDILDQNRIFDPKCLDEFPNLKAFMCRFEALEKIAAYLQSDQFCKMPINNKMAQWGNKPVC", "experiment": "Substrates for human cytosolic glutathione transferase GSTM3"}, "Leukotriene C4 synthase": {"molecular_target": "Leukotriene C4 synthase (Homo sapiens, UniProt Q16873)", "sequence (Q16873 whole entry)": "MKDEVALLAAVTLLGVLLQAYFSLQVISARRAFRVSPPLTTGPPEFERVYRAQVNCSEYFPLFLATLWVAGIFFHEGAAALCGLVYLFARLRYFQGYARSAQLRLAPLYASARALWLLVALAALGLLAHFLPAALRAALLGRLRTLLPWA", "experiment": "Substrates for human microsomal glutathione transferase LTC4S"}, "[6]": {"molecular_target": "Glutathione S-transferase 3, mitochondrial (Homo sapiens, UniProt O14880)", "sequence (O14880 whole entry)": "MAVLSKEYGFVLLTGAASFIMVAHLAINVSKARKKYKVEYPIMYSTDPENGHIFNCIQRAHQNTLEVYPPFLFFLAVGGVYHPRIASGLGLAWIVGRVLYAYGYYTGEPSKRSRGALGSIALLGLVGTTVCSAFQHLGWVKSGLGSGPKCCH", "experiment": "Substrates for human microsomal glutathione transferase MGST3"}, "[7]": {"molecular_target": "Microsomal glutathione S-transferase 2 (Homo sapiens, UniProt Q99735)", "sequence (Q99735 whole entry)": "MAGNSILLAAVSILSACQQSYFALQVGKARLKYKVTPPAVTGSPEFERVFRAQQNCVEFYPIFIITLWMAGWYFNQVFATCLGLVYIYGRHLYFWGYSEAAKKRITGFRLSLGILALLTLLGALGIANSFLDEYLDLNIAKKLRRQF", "experiment": "Substrates for human microsomal glutathione transferase MGST2"}}, "data": [{"smiles": "CCC1(c2ccccc2)C(=O)NC(=O)NC1=O", "note": "[PHENOBARBITAL]", "values": [{"measurement": "Activity", "setting": "[1]", "value": "indirect activator"}, {"measurement": "Activity", "setting": "[2]", "value": "indirect activator"}, {"measurement": "Activity", "setting": "Cytochrome P450 2C8", "value": "Inducer"}, {"measurement": "Activity", "setting": "Cytochrome P450 2B6", "value": "Inducer"}, {"measurement": "Activity", "setting": "Cytochrome P450 2C19", "value": "Inducer"}, {"measurement": "Activity", "setting": "Cytochrome P450 2C9", "value": "Inducer"}]}, {"smiles": "CCCCC[C@H](O)/C=C/[C@H]1C2CC(OO2)[C@@H]1C/C=C\\CCCC(=O)O", "note": "(stereo partly drawn)", "values": [{"measurement": "Activity", "setting": "Prostaglandin E synthase", "value": "Substrate"}, {"measurement": "Activity", "setting": "[3]", "value": "Substrate"}, {"measurement": "Activity", "setting": "[4]", "value": "Substrate"}, {"measurement": "Activity", "setting": "[5]", "value": "Substrate"}]}, {"smiles": "CCCCC/C=C\\C\\C=C/C=C/C=C/[C@@H]1O[C@H]1CCCC(=O)O", "note": "[LEUKOTRIENE A4]", "values": [{"measurement": "Activity", "setting": "Leukotriene C4 synthase", "value": "Substrate"}, {"measurement": "Activity", "setting": "[6]", "value": "Substrate"}, {"measurement": "Activity", "setting": "[7]", "value": "Substrate"}]}]}
